Values after ≈ are worked out from the molar mass of the structure shown.
Experiments:
Type in all cases: functional
Conditions in all cases: time 16-20 hrs
Staphylococcus aureus [1] = test: Antibacterial activity against methicillin-sensitive Staphylococcus aureus ATCC 29213 assessed as bacterial growth inhibition incubated for 16 to 20 hrs by CLSI based two-fold serial dilution method
[2] = system: Staphylococcus epidermidis; test: Antibacterial activity against methicillin-sensitive Staphylococcus epidermidis ATCC 12228 assessed as bacterial growth inhibition incubated for 16 to 20 hrs by CLSI based two-fold serial dilution method
Staphylococcus aureus [3] = test: Antibacterial activity against methicillin-resistant Staphylococcus aureus ATCC 700698 assessed as bacterial growth inhibition incubated for 16 to 20 hrs by CLSI based two-fold serial dilution method
Enterococcus faecium = test: Antibacterial activity against vancomycin-resistant Enterococcus faecium ATCC 700221 assessed as bacterial growth inhibition incubated for 16 to 20 hrs by CLSI based two-fold serial dilution method
Staphylococcus aureus [4] = test: Antibacterial activity against methicillin-resistant Staphylococcus aureus ATCC 43300 assessed as bacterial growth inhibition incubated for 16 to 20 hrs by CLSI based two-fold serial dilution method
Enterococcus faecalis [5] = test: Antibacterial activity against vancomycin-sensitive Enterococcus faecalis ATCC 29212 assessed as bacterial growth inhibition incubated for 16 to 20 hrs by CLSI based two-fold serial dilution method
Enterococcus faecalis [6] = test: Antibacterial activity against vancomycin-resistant Enterococcus faecalis ATCC 51299 assessed as bacterial growth inhibition incubated for 16 to 20 hrs by CLSI based two-fold serial dilution method

SMILES | MIC (Staphylococcus aureus [1]) [µg/mL] | MIC [2] [µg/mL] | MIC (Staphylococcus aureus [3]) [µg/mL] | MIC (Enterococcus faecium) [µg/mL] | MIC (Staphylococcus aureus [4]) [µg/mL] | MIC (Enterococcus faecalis [5]) [µg/mL] | MIC (Enterococcus faecalis [6]) [µg/mL]
CC1=C[C@H](O)[C@]2(O)C(=O)c3c(ccc(-c4ccc5c(c4O)C(=O)C4=C(O)C[C@@H](C)[C@H](O)[C@@]4(C)O5)c3O)O[C@@]2(C)[C@H]1O | 0.5 (≈ 0.883 µM) | ≤ 0.125 | 0.5 (≈ 0.883 µM) | 1 (≈ 1.77 µM) | 0.5 (≈ 0.883 µM) | 2 (≈ 3.53 µM) | 4 (≈ 7.06 µM)
CC1=CC(O)=C2C(=O)c3c(ccc(-c4ccc5c(c4O)C(=O)C4=C(O)C=C(C)[C@H](O)[C@]4(C)O5)c3O)O[C@@]2(C)C1=O | 1 (≈ 1.84 µM) | ≤ 0.125 | 0.5 (≈ 0.918 µM) | 2 (≈ 3.67 µM) | 1 (≈ 1.84 µM) | 4 (≈ 7.35 µM) | 4 (≈ 7.35 µM)
CC1=CC(O)=C2C(=O)c3c(O)ccc(-c4ccc5c(c4O)C(=O)C4=C(O)C=C(C)[C@H](O)[C@]4(C)O5)c3O[C@]2(C)C1=O | 1 (≈ 1.84 µM) | 0.25 (≈ 0.459 µM) | 0.5 (≈ 0.918 µM) | 1 (≈ 1.84 µM) | 1 (≈ 1.84 µM) | 4 (≈ 7.35 µM) | 4 (≈ 7.35 µM)
CC1=CC(O)=C2C(=O)c3c(ccc(-c4ccc5c(c4O)C(=O)C4=C(O)C=C(C)[C@H](O)[C@]4(C)O5)c3O)O[C@]2(C)C1=O | 0.5 (≈ 0.918 µM) | ≤ 0.125 | 0.25 (≈ 0.459 µM) | 0.5 (≈ 0.918 µM) | 0.5 (≈ 0.918 µM) | 2 (≈ 3.67 µM) | 2 (≈ 3.67 µM)
CC1=CC(O)=C2C(=O)c3c(ccc(-c4ccc5c(c4O)C(=O)C4=C(O)C=C(C)[C@H](O)[C@]4(C)O5)c3O)O[C@@]2(C)[C@H]1O | 2 (≈ 3.66 µM) | 1 (≈ 1.83 µM) | 2 (≈ 3.66 µM) | 16 (≈ 29.3 µM) | 4 (≈ 7.32 µM) | 128 (≈ 234 µM) | 128 (≈ 234 µM)
CC1=CC(O)=C2C(=O)c3c(ccc(-c4ccc5c(c4O)C(=O)[C@@]4(O)C(=O)C=C(C)[C@H](O)[C@]4(C)O5)c3O)O[C@]2(C)[C@H]1O | 4 (≈ 7.11 µM) | 0.5 (≈ 0.889 µM) | 4 (≈ 7.11 µM) | 4 (≈ 7.11 µM) | 4 (≈ 7.11 µM) | 16 (≈ 28.4 µM) | 16 (≈ 28.4 µM)
CC1=CC(O)=C2C(=O)c3c(O)ccc(-c4ccc5c(c4O)C(=O)C4=C(O)C=C(C)[C@H](O)[C@]4(C)O5)c3O[C@@]2(C)C1=O | 0.5 (≈ 0.918 µM) | ≤ 0.125 | 0.25 (≈ 0.459 µM) | 0.5 (≈ 0.918 µM) | 0.5 (≈ 0.918 µM) | 2 (≈ 3.67 µM) | 2 (≈ 3.67 µM)
CC1=CC(O)=C2C(=O)c3c(ccc(-c4ccc5c(c4O)C(=O)C4=C(O)C=C(C)C(=O)[C@]4(C)O5)c3O)O[C@@]2(C)C1=O | 1 (≈ 1.84 µM) | 0.25 (≈ 0.461 µM) | 0.5 (≈ 0.922 µM) | 1 (≈ 1.84 µM) | 1 (≈ 1.84 µM) | 4 (≈ 7.37 µM) | 4 (≈ 7.37 µM)
CC1=CC(O)=C2C(=O)c3c(ccc(-c4ccc(O)c(C(=O)c5c(O)cc(C)c(O)c5C)c4O)c3O)O[C@@]2(C)[C@H]1O | 1 (≈ 1.83 µM) | ≤ 0.125 | 0.5 (≈ 0.915 µM) | 1 (≈ 1.83 µM) | 1 (≈ 1.83 µM) | 2 (≈ 3.66 µM) | 4 (≈ 7.32 µM)
CC1=CC(O)=C2C(=O)c3c(ccc(-c4ccc5c(c4O)C(=O)C4=C(O)C[C@@H](C)[C@H](O)[C@@]4(C)O5)c3O)O[C@@]2(C)[C@H]1O | 0.5 (≈ 0.912 µM) | ≤ 0.125 | 0.25 (≈ 0.456 µM) | 1 (≈ 1.82 µM) | 0.5 (≈ 0.912 µM) | 2 (≈ 3.65 µM) | 4 (≈ 7.29 µM)
C[C@H]1COc2c(N3CCN(C)CC3)c(F)cc3c(=O)c(C(=O)O)cn1c23 [LEVOFLOXACIN ANHYDROUS] | 0.125 (≈ 0.346 µM) | 0.25 (≈ 0.692 µM) | 0.125 (≈ 0.346 µM) | > 64 | 0.125 (≈ 0.346 µM) | 1 (≈ 2.77 µM) | 1 (≈ 2.77 µM)
